In patent US11345700B2, “Methods of preparing inhibitors of influenza viruses replication” (priority 2013, dated 2022):
Read-outs that look alike come from different tables or passages of the source. Marks after values point to notes of the source that are not given here.

How the values were obtained:
[1] = test system: Influenza A/Victoria/3/75 (H3N2) virus; assay type: in vivo, BALB/c mice
[2] = test system: Influenza A/Vietnam/1203/2004 (H5N1) virus; assay type: in vivo, BALB/c mice; settings: 10 mg/kg p.o. twice a day for 10 days; Treatment (+48 h)
influenza A strains = test: microbe, parasite or virus in culture; assay type: cell-based
influenza B virus = test: Antiviral activity in MDCK cells measured by ATP levels (CellTiter-Glo), influenza B; assay type: cell-based; settings: read-out: Cell Protection Assay EC50 ± SD
influenza A virus = test: Mouse influenza A model: prophylactic dose response and delayed treatment, survival and body weight loss; assay type: in vivo, mice
Excerpt: The prophylactic dose response of Compound (1) was investigated in the mouse influenza A model. […] All of the mice that received vehicle alone succumbed to the infection by study day 9 and had lost, on average, ˜32% of their body weight (BW).
All vehicle controls succumbed to disease by study days 8 or 9.

influenza A = test: Mouse model of influenza A: lung viral titers; assay type: in vivo, mice; settings: Study 1, 30 mg/kg BID from 24 h post infection for 5 days
[3] = 1 mg/kg p.o. twice a day for 10 days starting 2 hours prior to virus exposure
[4] = 3 mg/kg p.o. twice a day for 10 days starting 2 hours prior to virus exposure
[5] = 10 mg/kg p.o. twice a day for 10 days starting 2 hours prior to virus exposure
[6] = treatment start +24 h relative to infection, 1 mg/kg BID
[7] = treatment start +24 h relative to infection, 3 mg/kg BID
[8] = treatment start +24 h relative to infection, 10 mg/kg BID
[9] = treatment start +48 h relative to infection, 1 mg/kg BID
[10] = treatment start +48 h relative to infection, 3 mg/kg BID
[11] = treatment start +48 h relative to infection, 10 mg/kg BID
[12] = treatment start +72 h relative to infection, 1 mg/kg BID
[13] = treatment start +72 h relative to infection, 3 mg/kg BID
[14] = treatment start +72 h relative to infection, 10 mg/kg BID
[15] = treatment start +96 h relative to infection, 3 mg/kg BID
[16] = treatment start +96 h relative to infection, 10 mg/kg BID
[17] = treatment start +120 h relative to infection, 3 mg/kg BID
[18] = treatment start +120 h relative to infection, 10 mg/kg BID
[19] = treatment start −2 h relative to infection, 0.1 mg/kg BID
[20] = treatment start −2 h relative to infection, 0.3 mg/kg BID
[21] = treatment start −2 h relative to infection, 1 mg/kg BID
[22] = treatment start −2 h relative to infection, 3 mg/kg BID
[23] = treatment start −2 h relative to infection, 10 mg/kg BID

SMILES: O=C(O)[C@H]1[C@H]2CC[C@H](CC2)[C@@H]1Nc1nc(-c2c[nH]c3ncc(F)cc23)ncc1F [Compound (1)]
- MDD ± SD (mean day of death of mice that died on or before day 21) [1, 3]: 9.8
- Mean Lung Parameters (Day 6): Score (hemorrhage score 0-4) [1, 3]: 3.2
- Mean Lung Parameters (Day 6): Virus Titer [1, 3]: 7.3 Log10 CCID50/g
- Mean Lung Parameters (Day 6): Weight [1, 3]: 274 mg
- Survivors/Total [1, 3]: 4/10
- Mean Lung Parameters (Day 6): Score (hemorrhage score 0-4) [1, 4]: 3.3
- Mean Lung Parameters (Day 6): Virus Titer [1, 4]: 7.2 Log10 CCID50/g
- Mean Lung Parameters (Day 6): Weight [1, 4]: 260 mg
- Mean Lung Parameters (Day 6): Score (hemorrhage score 0-4) [1, 5]: 0.1
- Mean Lung Parameters (Day 6): Virus Titer [1, 5]: 6.1 Log10 CCID50/g
- Mean Lung Parameters (Day 6): Weight [1, 5]: 164 mg
- MDD ± SD (mean day of death of mice that died on or before day 21) [2]: >21
- Mean Lung Parameters (Day 6): Virus Titer [2]: 3.75 ± 0.94 Log10 CCID50/g
- Survivors/Total [2]: 10/10
- EC50 (influenza A strains; ATCC 2 / H1N1, MDCK, read-out: Cell Protection Assay EC50 ± SD): 1.9 ± 3 nM
- EC50 (influenza A strains; ATCC 3 / H1N1, MDCK, read-out: Cell Protection Assay EC50 ± SD): 1.9 ± 3.2 nM
- EC50 (influenza A strains; H1N1, MDCK, in Sus scrofa, read-out: Cell Protection Assay EC50 ± SD, A/Swine/1976/31, H1N1): 0.47 ± 0.11 nM
- EC50 (influenza A strains; H1N1, MDCK, in Sus scrofa, read-out: Cell Protection Assay EC50 ± SD, A/Swine/Iowa/15/30, H1N1): 0.65 ± 0.082 nM
- EC50 (influenza A strains; H1N1, MDCK, read-out: Cell Protection Assay EC50 ± SD, A/New Jersey/8/76, H1N1): 0.2 ± 0.096 nM
- EC50 (influenza A strains; H3N8, MDCK, in Equus caballus, read-out: Cell Protection Assay EC50 ± SD, A/Equine/2/Miami/63, H3N8): 0.5 ± 0.065 nM
- EC50 (influenza B virus; B/Russia/69): > 10 nM
- EC50 (influenza B virus; Influenza B virus, MDCK, B/Lee/40): > 10 nM
- survival (mice) (influenza A virus; 0.3 mg/kg BID for 10 days, initiated 2 h prior to infection): 2/8
- Percent Body Weight Loss on Study Day 8 (influenza A virus; [6]): −23.4%
- Percent Survival (influenza A virus; [6]): 100%
- Percent Body Weight Loss on Study Day 8 (influenza A virus; [7]): −14.2%
- Percent Survival (influenza A virus; [7]): 100%
- Percent Body Weight Loss on Study Day 8 (influenza A virus; [8]): −6.2%
- Percent Survival (influenza A virus; [8]): 100%
- Percent Body Weight Loss on Study Day 8 (influenza A virus; [9]): −22.5%
- Percent Survival (influenza A virus; [9]): 100%
- Percent Body Weight Loss on Study Day 8 (influenza A virus; [10]): −10.9%
- Percent Survival (influenza A virus; [10]): 100%
- Percent Body Weight Loss on Study Day 8 (influenza A virus; [11]): −7.1%
- Percent Survival (influenza A virus; [11]): 100%
- Percent Body Weight Loss on Study Day 8 (influenza A virus; [12]): −29.4%
- Percent Survival (influenza A virus; [12]): 100%
- Percent Body Weight Loss on Study Day 8 (influenza A virus; [13]): −23.2%
- Percent Survival (influenza A virus; [13]): 100%
- Percent Body Weight Loss on Study Day 8 (influenza A virus; [14]): −17.4%
- Percent Survival (influenza A virus; [14]): 100%
- Percent Body Weight Loss on Study Day 8 (influenza A virus; [15]): −27.3%
- Percent Survival (influenza A virus; [15]): 100%
- Percent Body Weight Loss on Study Day 8 (influenza A virus; [16]): −25.5%
- Percent Survival (influenza A virus; [16]): 100%
- Percent Body Weight Loss on Study Day 8 (influenza A virus; [17]): −32.6%
- Percent Survival (influenza A virus; [17]): 12.5%
- Percent Body Weight Loss on Study Day 8 (influenza A virus; [18]): −34.4%
- Percent Survival (influenza A virus; [18]): 37.5%
- Percent Body Weight Loss on Study Day 8 (influenza A virus; [19]): −31.9%
- Percent Survival (influenza A virus; [19]): 0%
- Percent Body Weight Loss on Study Day 8 (influenza A virus; [20]): −30.4%
- Percent Survival (influenza A virus; [20]): 25%
- Percent Body Weight Loss on Study Day 8 (influenza A virus; [21]): −16.8%
- Percent Survival (influenza A virus; [21]): 100%
- Percent Body Weight Loss on Study Day 8 (influenza A virus; [22]): −8.7%
- Percent Survival (influenza A virus; [22]): 100%
- Percent Body Weight Loss on Study Day 8 (influenza A virus; [23]): −2.8%
- Percent Survival (influenza A virus; [23]): 100%
- Log10 Reduction vs. Vehicle (influenza A; study day 6): −2.25***
- Lung Viral Titer (influenza A; titers on study day 6): 3.95 Log10 TCID50
